Entries after “also recorded” stand apart in the source; their conditions may differ. Read-outs that look alike come from different tables or passages of the source.
Columns and labels:
[1] = molecular target: T1, purified human PP2A A-C dimer (Homo sapiens, UniProt P67775); assay: Free sulfhydryl groups in purified PP2A (Ellman's assay); type: biochemical; conditions: 0.01 U PP2A, 10 mM of each agent, 15 min at 37° C.
T1 construct: purified PP2A A-C dimer purified from human red blood cells; purchased Upstate 14-111 (lot #28002); host or cells: human red blood cells (native purification)
Source text: Inactivating reversible oxidation of protein phosphatases involves the modification of a critical cysteine residue within the catalytic domain, ultimately leading to the formation of either intramolecular disulphide or sulphenyl-amide bonds. […] Ellman's reagent (5,5′-Dithio-bis(2-nitrobenzoic acid), DTNB) rapidly forms a disulphide bond with free sulfhydryl groups with the release of chromogenic thiolate ions. […] The quantity of free sulfhydryl groups present within the phosphatase was then determined by the addition of Ellman's reagent and subsequent measurement of absorbance at 412 nm (FIG. 5C).
The change in free sulfhydryl groups in purified PP2A following various treatments was determined using Ellman's Reagent. To 0.01 U of PP2A was added to 37.5 μl of dilution buffer (30 mM Tris-HCl, 3 mM EDTA, pH 8.2), 12.5 μl DTNB reagent (Ellman's reagent) and 200 μl of methanol. Samples were incubated for 5 min at RT, and then extinction measured in duplicate for each at 412 nm.

Akt = Akt phosphorylation by immunoblot in PC3 prostate carcinoma cells; type: cell-based, human; conditions: for Akt activation: ratio of phosphorylated Akt to total Akt versus control: serum starved PC3 cells, 500 μM, 1 hour, densitometry; for effect of hydrogen peroxide on sodium selenate induced reduction of Akt phosphorylation: sodium selenate 500 μM
Method: Such dephosphorylation may be the result of a direct inhibitory effect on the Akt protein itself, or alternatively, can be similarly achieved indirectly by boosting a negative regulator or inhibiting a positive regulator of Akt phosphorylation. […] PC3 prostate carcinoma cells were plated in 100 mm dishes, and when 70-80% confluent serum starved overnight. […] Cells were lysed, and the level of Akt Ser473 phosphorylation determined by immunoblot analysis with an activation specific antibody, and comparison made to levels of Akt protein expressed. To determine the effect on purified Akt, similarly plated but untreated PC3 cells were lysed in RIPA (minus phosphatase inhibitors), a stringent cell lysis buffer that minimizes maintenance of protein-protein complexes. […] The immunoprecipitated protein was then resolved and the level of activated Akt determined by immunoblot analysis as described above.
A reduction in net Akt activity could be achieved indirectly by either preventing the initial Akt phosphorylation, or alternatively, increasing Akt dephosphorylation [Kohn et. al. 1996]. […] Initially okadaic acid, a polyether toxin from red-tide algae (and causative agent of diarrhoetic shellfish poisoning) which inhibits the phospho-protein phosphatases PP1 and PP2A, two phosphatases implicated in the regulation of Akt dephosphorylation was used [Fernandez et al., 2002]. 5×10^5 PC3 prostate carcinoma cells were plated per well of a 6 well plate, allowed attach for 8 h, and then serum starved overnight. […] Lysed cells were resolved by SDS-PAGE, then probed for Akt phosphorylation at the Ser473 residue by immunoblot analysis with an antibody that specifically recognizes Akt when phosphorylated at this site, and comparison made with the total levels of Akt protein expressed (FIG. 2A).
This panel included tautamycin 500 nM (PP1), okadaic acid 500 nM (low dose PP2A>PP1), endothall A (PP2A) 100 μM, calyculin A 2 nM (low dose PP1>PP2A), calyculin A 10 nM (high dose inhibits PP1 and PP2A) and cyclosporine A 400 ng/ml (PP2B). […] Again, lysed cells were resolved by SDS-PAGE, then membranes probed for Akt phosphorylation at the Ser^473 residue by immunoblot analysis with an antibody that specifically recognizes Akt when phosphorylated at this site, and comparison made with the total levels of Akt protein expressed.
5×10^5 PC3 prostate carcinoma cells were plated per well in a 6-well plate, allowed to attach for 8 h, and then serum starved overnight. […] Equal amounts of whole cell lysates were resolved, and then subjected to immunoblot analysis to determine the level of phosphorylated Akt Ser^473. Comparison was then made with the total level of Akt protein expressed.
The phosphorylation status of Akt in whole cell lysates was determined using activation specific antibodies.
Other inorganic (sodium selenite, selenium dioxide, selenium sulphide and selenious acid) and organic (methylselenocysteine, selenocystine) selenium species were tested for their ability to affect Akt activation. All forms were dissolved in water with the exception of selenium sulphide which was solubilised in DMSO, and added to serum starved PC3 cells at a concentration of 500 μM for 1 hour, Whole cell lysates were then resolved, and the activation status of Akt determined by immunoblotting with an antibody that specifically recognizes Akt when phosphorylated at the Ser473 site, as well as the total level of Akt expression (pan Akt). To quantify the degree of Akt activation, immunoblots were digitalised, and the ratio of phosphorylated Akt to total Akt determined by densitometry.

[2] = molecular target: T2, human PP2A A-C heterodimer (Homo sapiens, UniProt P67775); type: biochemical
T2 construct: purified PP2A A-C dimer purified from human red blood cells; purchased Upstate 14-111 (lot #28002); host or cells: human red blood cells (native purification)
Method: In initial assays a chemical substrate of phosphatase enzymatic action, para-nitrophennylphosphate (pNPP) was used, which following hydrolysis of the phosphate moiety generates para-nitrophenol, an intensely yellow chromogen which is soluble under alkaline conditions. […] Absorbance of each sample was measured in duplicate at 405 nm with 590 nm as a reference. PP2A activity was calculated using the following equation: activity=(sample vol in liters)×A405/1.78×104M^−1 cm^−1 (extinction coefficient)×0.25 cm×15 minutes×0.05 U enzyme Data is presented as mean relative phosphatase activity ±SEM from at least three independent experiments.
Para-nitrophennylphosphate (PNPP) is a chemical substrate of phosphatase enzymes, which following hydrolysis of the phosphate moiety generates para-nitrophenol, an intensely yellow chromogen, soluble under alkaline conditions. In assays measuring relative phosphatase activity, 0.05 U of purified PP2A was mixed with 5 μl of 40 mM NiCl2 and 5 μl of BSA solution (5 mg/ml) in a microcentrifuge tube. Various treatments were added as indicated, and the volume adjusted to 80 μl with pNPP assay buffer. Samples were pre-incubated at 37° C. for 15 min. pNPP substrate was freshly prepared before each assay by dissolving 1.5 mg/ml pNPP in 50 mM Tris-HCl, pH 7.0. To start the phosphatase reaction, 120 μl of pNPP substrate was added, and samples incubated for a further 15 min at 37° C. Absorbance of each sample was measured in duplicate at 405 nm with 590 nm as a reference. PP2A activity was calculated using the following equation: activity=(Sample volume in liters)×A405/1.78×10^4M^−1cm^−1 (Extinction coefficient)×0.25 cm×15 min×0.05 U enzyme.

PP2A A-C dimer = molecular target: T3, PP2A A-C dimer (Homo sapiens, UniProt P67775); assay: Phosphopeptide / malachite green assay with purified PP2A; type: biochemical; conditions: 50 μM of each selenium compound
T3 construct: purified PP2A A-C dimer purified from human red blood cells; purchased Upstate 14-111 (lot #28002); host or cells: human red blood cells (native purification)
Method: The amount of inorganic phosphate released by enzymatic activity was determined by the addition of malachite green, and absorbance read at 590 nm. Malachite green forms a stable green complex in the presence of molybdate and orthophosphate, allowing the concentration of inorganic phosphate present to be measured. Data is presented as mean absorbance at 590 nm from at least three independent experiments, ±SEM.
1 mg of synthetic phosphopeptides K-R-pT-I-R-R (Upstate #12-219) and R-R-A-pS-V-A (Upstate #12-220) were dissolved in 1.10-1.285 ml of dH2O to prepare a 1 mM solution, then aliquoted and stored at −20° C. until use. 0.01-0.05 U of purified PP2A A-C dimer purified from human red blood cells, or 0.05 U of rabbit PP1 purified from skeletal muscle was mixed with 500 μM of phosphopeptide and incubated in the presence of various treatments as indicated at 37° C. on a heating block for 15 min. Each reaction was made up to a total volume of 25 μl with pNPP buffer (50 mM Tris-HCl, pH 7.0, 100 μM CaCl2). The enzyme reaction was terminated by adding 100 μl of malachite green solution (0.034% malachite green in 10 mM ammonium molybdate, 1 N HCl, 3.4% ethanol, 0.01% Tween-20). Malachite green forms a stable green complex in the presence of molybdate and orthophosphate, allowing the amount of inorganic phosphate present to be measured. Absorbance was read in duplicate for each sample at 590 nm.

PP2A = molecular target: T4, PP2A (Homo sapiens, UniProt P67775); assay: PP2A immunoprecipitation from treated PC3 cells and phosphatase assay; type: cell-based; conditions: PC3 cells treated 1 hour; sodium selenate 500 μM, endothall A 100 μM
T4 construct: the phosphatase activity of the general pool of intracellular PP2A; endogenous in cells; host or cells: PC3 prostate carcinoma cells
Method: Free phosphate was removed by passing cell lysates through desalting columns, and measured phosphatase activity using a phosphor-serine peptide and malachite green.
1×10^6 PC3 cells were plated in 60 mm plates and allowed attach for 8 h, then serum starved over night. Following various treatments as indicated, the media was aspirated and cells washed once with TBS. Cells were lysed in 0.3 ml of lysis buffer (20 mM Tris-HCl, pH 7.0, 1% Igepal-CA, 2 mM EDTA, 2 mM EGTA, 1× Complete Protease Inhibitor Cocktail) and phosphates removed by passing the lysate through a 2 ml Zeba Desalt Spin Column (Pierce #89890). Protein concentration of the desalted lysate was determined by the BCA assay as previously described. 100-150 μg of total protein was immunoprecipitated with 4 μg of anti-PP2A monoclonal antibody and 30 μl of Protein A-sepharose slurry at 4° C. for 2 h. Samples were then pelleted at 14,000 rpm for 1 min, washed three times in excess TBS and once with pNPP assay buffer. After the final spin all of the supernatant was carefully removed and 500 μM of phosphor-threonine peptide in a final volume of 80 μl added to the beads. Samples were incubated at 30° C. for 10 min with agitation, and the reaction terminated by the addition of malachite green solution. Absorbance was read at 590 nm for each sample in duplicate.

p70S6K = type: cell-based, human; conditions: PC3 cells; LY294002 50 μM 1 hour, sodium selenate 500 μM 1 hour, okadaic acid 500 nM
Method: 5×10^5 PC3 prostate carcinoma cells were plated per well of a 6-well plate, allowed to attach for 8 hours, then serum starved overnight. […] Equal amounts of whole cell lysates (75 μg) were resolved by SDS-PAGE, and the level of p70S6K phosphorylation determined by immunoblot analysis with an antibody that specifically recognizes the p70S6K protein when phosphorylated on Thr389. Comparison is made with the protein loading control β tubulin.

[3] = test system: PC3 prostate carcinoma cells; assay: Intracellular redox state assay (DCFDA, flow cytometry)
Method: 1×10^6 PC3 prostate carcinoma cells were plated in 60 mm dishes, allowed to attach for 8 h, and serum starved overnight. Cells were incubated with DCFDA 5 μM for 15 min prior to treatment.
The proportion of fluorescent cells was then determined by flow cytometry.
Intracellular redox state was determined using 2′,7′-dichlorodihydrofluorescein diacetate (DCFDA). […] Cells were equilibrated with 5 μM of DCFDA for 15 min prior to various treatments. Adherent cells were then harvested, washed twice with PBS and the proportion of fluorescent cells determined immediately by flow cytometry.

GSK-3β = GSK-3β Ser9 phosphorylation by immunoblot in PC3 cells; type: cell-based, human; conditions: densitometry, sodium selenate 500 μM 3 h, LY294002 50 μM 1 h
Source text: The metabolic effects of insulin on glycogen synthesis are mediated by glycogen synthase kinase-3 (GSK-3), a direct downstream substrate of Akt. GSK-3 is a ubiquitously expressed serine/threonine kinase that phosphorylates and inactivates glycogen synthase. In response to activation of the insulin receptor, Akt phosphorylates and inactivates the repressor GSK-3, thereby stimulating glycogen synthesis [Cross et al., 1995]. […] Resolved whole cell lysates were subjected to immunoblot analysis with an antibody that specifically recognizes GSK-3β only when phosphorylated at Ser9, a site critical for its kinase activity, and comparison made with the cytoskeletal protein β-tubulin as a loading control.

T2 sequence (P67775 whole entry): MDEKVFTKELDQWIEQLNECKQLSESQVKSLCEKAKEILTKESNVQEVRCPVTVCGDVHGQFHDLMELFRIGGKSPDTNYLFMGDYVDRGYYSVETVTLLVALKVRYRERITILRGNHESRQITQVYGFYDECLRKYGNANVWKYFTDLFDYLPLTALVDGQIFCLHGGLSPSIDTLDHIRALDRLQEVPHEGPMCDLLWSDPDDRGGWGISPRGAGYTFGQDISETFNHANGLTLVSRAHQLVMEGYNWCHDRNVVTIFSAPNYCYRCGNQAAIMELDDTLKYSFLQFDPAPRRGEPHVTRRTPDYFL
T2 sequence (P30153 2-589 partner limits assumed): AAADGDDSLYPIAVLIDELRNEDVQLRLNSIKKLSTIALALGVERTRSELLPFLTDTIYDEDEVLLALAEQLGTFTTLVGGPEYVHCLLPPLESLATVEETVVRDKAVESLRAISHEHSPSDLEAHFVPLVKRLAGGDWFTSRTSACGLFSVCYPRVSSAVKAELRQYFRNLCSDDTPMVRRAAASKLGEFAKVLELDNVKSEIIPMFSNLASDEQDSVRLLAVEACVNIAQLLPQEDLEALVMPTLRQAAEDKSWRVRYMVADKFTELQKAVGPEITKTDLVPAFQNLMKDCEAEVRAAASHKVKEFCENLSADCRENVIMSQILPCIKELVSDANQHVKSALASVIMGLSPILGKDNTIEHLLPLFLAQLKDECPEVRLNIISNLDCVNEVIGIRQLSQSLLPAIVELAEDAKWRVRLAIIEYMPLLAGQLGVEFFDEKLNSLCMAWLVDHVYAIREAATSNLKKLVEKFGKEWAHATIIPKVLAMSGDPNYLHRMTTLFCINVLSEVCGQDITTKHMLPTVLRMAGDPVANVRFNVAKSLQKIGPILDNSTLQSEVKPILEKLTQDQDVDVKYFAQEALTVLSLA
T1 sequence (P67775 whole entry): as the sequence (P67775 whole entry) above
T1 sequence (P30153 2-589 partner limits assumed): as the sequence (P30153 2-589 partner limits assumed) above
T4 sequence (P67775 whole entry): as the sequence (P67775 whole entry) above
T4 sequence (P30153 2-589 partner limits assumed): as the sequence (P30153 2-589 partner limits assumed) above
T3 sequence (P67775 whole entry): as the sequence (P67775 whole entry) above
T3 sequence (P30153 2-589 partner limits assumed): as the sequence (P30153 2-589 partner limits assumed) above

In the case of `CCN1C(=O)C=CC1=O` [NEM, N-ethylmaleimide, reference compound], the “number of free sulfhydryl groups in PP2A” value [1] is reported as “significantly reduced the number of free sulfhydryl groups”.
In the case of `C[Se]CC[C@H](N)C(=O)O` [selenomethionine, reference compound], the “Akt phosphorylation at Ser473” value (Akt; PC3 cells, 500 μM of each compound, various timepoints) is reported as “did not affect the level of Akt phosphorylation; also recorded: did not affect the level of phosphorylation of Akt”, the “PP2A phosphatase activity, pNPP as substrate” value ([2]; 5 mM of each selenium compound) is reported as “neither sodium selenite nor selenomethionine significantly affected PP2A phosphatase activity” and the “PP2A phosphatase activity, serine phosphopeptide as substrate” value (PP2A A-C dimer) is reported as “neither sodium selenite nor selenomethionine significantly affected PP2A phosphatase activity”.
With `N[C@@H](C[SeH])C(=O)O` [selenocysteine] the “Akt activation: ratio of phosphorylated Akt to total Akt versus control” value (shortened to “Akt activation: ratio”) (Akt) was “induce activation of Akt above control (con) levels”.
In the case of `O=C(O)[C@@H]1[C@H](C(=O)O)[C@H]2CC[C@@H]1O2` [endothall A, reference compound], the “effect of PPP inhibitor pretreatment on sodium selenate induced Akt Ser473 dephosphorylation” value (Akt) is reported as “completely blocked sodium selenate induced Akt dephosphorylation” and the “phosphatase activity of immunoprecipitated PP2A (general intracellular pool)” value (PP2A) is reported as “significantly reduced phosphatase activity”.
In the case of `O=[Se](O)O` [selenous acid], the “Akt activation: ratio” value (Akt) is reported as “induce activation of Akt above control (con) levels”.
`O=[Se]=O` [selenium dioxide] was tested, and the “Akt activation: ratio” value (Akt) was “induce activation of Akt above control (con) levels”.
In the case of `C=C1[C@@H](O)[C@@H]2O[C@]3(CC[C@H](/C=C/[C@@H](C)[C@@H]4CC(C)=C[C@@]5(O[C@H](C[C@@](C)(O)C(=O)O)CC[C@H]5O)O4)O3)CC[C@H]2O[C@@H]1[C@@H](O)C[C@H](C)[C@H]1O[C@@]2(CCCCO2)CC[C@H]1C` [okadaic acid], the “effect of PPP inhibitor pretreatment on sodium selenate induced Akt Ser473 dephosphorylation” value (Akt; PC3 cells, inhibitor 30 min (okadaic acid 500 nM, endothall A 100 μM, tautamycin 500 nM, calyculin A 2 nM, cyclosporine A 400 ng/ml), then sodium selenate 500 μM 1 h) is reported as “completely blocked sodium selenate induced Akt dephosphorylation”, the “effect of pretreatment on the sodium selenate induced reduction of Akt phosphorylation” value (Akt; PC3 cells, okadaic acid 5 nM 30 min, then sodium selenate 500 μM 1 h) is reported as “unaffected” and the “Akt Ser473 phosphorylation in non-selenate controls” value (Akt; PC3 cells, okadaic acid 1000 nM) is reported as “boosts Akt phosphorylation in non-selenate controls”. For the same compound, the “effect of pretreatment on the sodium selenate induced reduction of Akt phosphorylation” value (Akt; PC3 cells, okadaic acid 1000 nM 30 min, then sodium selenate 500 μM 1 h) was “completely abolishes the inhibitory effect of sodium selenate”, the “PP2A phosphatase activity (pNPP)” value ([2]; 0.05 U PP2A dimer, 30 min at 37° C., sodium selenate 5 mM, okadaic acid 500 nM) was “completely abolished” and the “p70S6K phosphorylation on Thr389” value (p70S6K) was “boosts the level of phosphorylation observed”.
For `OO` [hydrogen peroxide], the “effect of hydrogen peroxide on sodium selenate induced reduction of Akt phosphorylation” value (Akt; PC3 cells, hydrogen peroxide 0.25 mM for 10 min) was “unaffected”, the “effect of hydrogen peroxide on sodium selenate induced reduction of Akt phosphorylation” value (Akt; PC3 cells, hydrogen peroxide 1 mM for 10 min) was “completely abolished the dephosphorylating effect of sodium selenate” and the “number of free sulfhydryl groups in PP2A” value [1] was “significantly reduced the number of free sulfhydryl groups”. For the same compound, the “generation of intracellular oxygen free radicals” value ([3]; hydrogen peroxide 500 μM, 10 min) was “marked increase in the generation of intracellular oxygen free radicals”.
In the case of `O=c1cc(N2CCOCC2)oc2c(-c3ccccc3)cccc12` [LY294002, reference compound], the “reduction of GSK-3β phosphorylation levels” value (GSK-3β) is reported as about 60%.
For `S=[Se]=S` [selenium sulfide], the “Akt activation: ratio” value (Akt) was “induce activation of Akt above control (con) levels”.
For `CC(=O)N[C@@H](CS)C(=O)O` [NAC, N-acetylcysteine], the “basal proportion of fluorescent cells (ROS)” value ([3]; 1 h, sodium selenate 500 μM, NAC 1 mM) was “small reduction in the basal proportion of fluorescent cells”.
